Results on 52 compounds are retold here after PubChem BioAssay AID1996.

≈ marks a conversion by molar mass, not a printed value.

For this data set the following is noted: buffer; pH 7.4; 200.0 µM.
Consider `CCOc1ccc(NC(=O)Nc2ccc3c(c2)nc(C)n3C)cc1`, for which the kinetic solubility (as a rule, solubility judged after dilution from a stock solution rather than from solid) is 2.5 µg/mL (≈ 7.71 µM). The same measure for `CCOc1ccc(Nc2ncnc3ccc([N+](=O)[O-])cc23)cc1`: 4.1 µg/mL (≈ 13.2 µM); for `Cc1ccccc1C(N)c1ccncc1.Cl` (configuration not stated): more than 40.7 µg/mL. The result for `CCN1CCN(C(=O)C(Cc2ccccc2)NC(=O)c2ccc(Cl)c(S(=O)(=O)N(C)C)c2)CC1` (configuration not stated) reads more than 76.1 µg/mL; that for `C[N+]1(C)[C@@H]2CC[C@H]1CC(OC(=O)C(CO)c1ccccc1)C2.O=[N+]([O-])[O-]` (some centres not stated), more than 55 µg/mL; that for `O=C(CSC(=S)N1CCOCC1)Nc1ncc2c(n1)CCCC2=O`, 54.7 µg/mL (≈ 149 µM). The result for `O=C(Nc1ccc2c(c1)OCCO2)C1CC(c2ccc(F)cc2)=NO1` (configuration not stated) reads 1.2 µg/mL (≈ 3.51 µM); that for `Cc1ccc(NC(=O)Cn2cc(C=O)c3ccccc32)cc1C`, less than 0.3 µg/mL; that for `CC(=O)c1sc(NC(=O)c2cccc(C)c2)nc1C`, 16.8 µg/mL (≈ 61.2 µM). With `O=C(CSc1nnc2ccccn12)Nc1ccc(N2CCOCC2)cc1`, the solubility (kinetic) is more than 55.4 µg/mL.

Take `Cc1ccc(Cl)cc1NC(=O)CC1NC2CCCCC2NC1=O` (configuration not stated): the solubility (kinetic) amounted to 38.6 µg/mL (≈ 115 µM). Compound `Cc1ccc(S(=O)(=O)NC(C)C(=O)NC(C)c2cccs2)cc1` (configuration not stated) registered a kinetic solubility of 51.6 µg/mL (≈ 146 µM).

As to `O=C(O)CSCC(=O)N(c1ccccc1)c1ccccc1`, the kinetic solubility is 42.9 µg/mL (≈ 142 µM). For the compound `NC(=O)CSc1nc2cccnc2n1-c1ccc(F)cc1`, the solubility (kinetic) came out at 45.2 µg/mL (≈ 150 µM). The result for `CCC(CC)C(=O)Nc1nnc(SCC(=O)NC(C)(C)C)s1` reads more than 51.7 µg/mL; that for `Cc1ccc(CN2CCS(=O)(=O)CC2)o1`, more than 34.4 µg/mL; that for `CC(Sc1nc2ccc(C(=O)c3ccccc3)cc2[nH]1)C(=O)O` (configuration not stated), more than 49 µg/mL. `CNC(=S)Nc1ccc2[nH]c(=O)[nH]c2c1` displayed a solubility (kinetic) of more than 33.3 µg/mL. The compound `O=C(COC(=O)c1ccc(Br)o1)NC12CC3CC(CC(C3)C1)C2` registered a solubility (kinetic) of 34.3 µg/mL (≈ 89.7 µM). The result for `CCOc1ccc(NC(=O)NCc2cccn2C)cc1` reads 9.2 µg/mL (≈ 33.7 µM). The same measure for `O=[N+]([O-])c1ccc(O)c(CN2CCCCCC2)c1`: more than 37.5 µg/mL; for `COc1cccc(C(=O)N2CCC(C(=O)NCc3ccco3)CC2)c1`: 50.6 µg/mL (≈ 148 µM); for `COc1ccccc1Nc1nc(N)nc(CN2CCC(C)CC2)n1`: more than 49.3 µg/mL.

Turning to `O=C(CSC1=NS(=O)(=O)c2ccccc2N1)Nc1ccccc1F`, the kinetic solubility is more than 54.8 µg/mL.

Turning to `Br.CC(C)(C)c1cc(C2=CSC3=NCCN23)cc(C(C)(C)C)c1O`, the solubility (kinetic) was found to be 10.7 µg/mL. The compound `c1ccc(Nc2ccnc(Nc3ccccc3)n2)cc1` had a solubility (kinetic) of 6.7 µg/mL (≈ 25.5 µM).

In turn, `CC(=O)NCCc1nc2ccccc2n1Cc1ccc(Cl)cc1` displayed a solubility (kinetic) of more than 49.2 µg/mL. Consider `CCN(CC)Cc1ccccn1.Cl`, for which the solubility (kinetic) worked out at 29.2 µg/mL. The same measure for `N#Cc1ccc(N=c2ssnc2Cl)cc1`: 4.2 µg/mL (≈ 16.6 µM); for `O=C(/C=C/c1ccco1)OCC(=O)c1cccc([N+](=O)[O-])c1`: 3.2 µg/mL (≈ 10.6 µM); for `O=C(c1ccc(Cl)cc1)N1CCN(CCOc2ccccc2)CC1`: more than 51.7 µg/mL.

`Cc1ccc(N=Cc2c(O)c3ccccc3oc2=O)c(C)c1` yielded a kinetic solubility of less than 0.6 µg/mL.

For `O=C(CCCOc1ccc(Cl)cc1)NC1CCCCC1`, the kinetic solubility is 1.9 µg/mL (≈ 6.42 µM). The result for `CCn1c(SCC(N)=O)nnc1-c1ccc2c(c1)OCO2` reads more than 46 µg/mL; that for `COc1ccc(CCNC(=O)CCc2cn(C)c3ccccc23)c(OC)c1`, 16.9 µg/mL (≈ 46.1 µM). The same measure for `O=C(CSc1ccccc1C(=O)O)NC12CC3CC(CC(C3)C1)C2`: more than 51.8 µg/mL; for `O=C(Nc1cc(S(=O)(=O)N2CCOCC2)ccc1N1CCOCC1)c1ccccc1Cl`: more than 69.9 µg/mL; for `Cc1ccc(C2=NN(CC(=O)NCCC(C)C)C(=O)CC2)cc1`: more than 47.3 µg/mL.

For the compound `Cc1ccc2c(c1)C1(OCCCO1)C(=O)N2CC#N`, the kinetic solubility worked out at 37.6 µg/mL (≈ 146 µM).

`C=CCOc1ccccc1NC(=O)CN1C(=O)CNC1=O` yielded a kinetic solubility of more than 43.4 µg/mL.

`O=C1CCCN1CCCNC(=S)Nc1ccccc1Cl` came in with a kinetic solubility of 38.4 µg/mL (≈ 123 µM). The same measure for `c1ccc2nc(-c3nccs3)ccc2c1`: 10.3 µg/mL (≈ 48.5 µM).

With `COc1ccc(C)cc1NC(=O)C1CC1c1ccccc1` (configuration not stated), the kinetic solubility came to 4.7 µg/mL (≈ 16.7 µM). With `O=C(COc1ccccc1Cl)NCCNC(=O)c1ccccn1`, the solubility (kinetic) is more than 50.1 µg/mL. In turn, `CCCn1cc(C(=O)OCC)c(=O)c2cc(F)c(F)cc21` yielded a solubility (kinetic) of 34.9 µg/mL (≈ 118 µM). As to `CCOc1ccc(C2NC(=O)NC(C)=C2[N+](=O)[O-])cc1OC` (configuration not stated), the solubility (kinetic) amounted to 45.5 µg/mL (≈ 148 µM). The result for `Cc1csc(NS(=O)(=O)c2ccc(Cl)cc2)n1` reads 42.4 µg/mL (≈ 147 µM); that for `O=C(O)c1cccc2c3c([nH]c12)CCCC3`, more than 32.3 µg/mL; that for `c1ccc(CCn2cnc3ccccc32)cc1`, 29.3 µg/mL (≈ 132 µM). The same measure for `CC(=O)N1CCN(C(=O)c2ccc(C(=O)c3ccccc3)cc2)CC1`: more than 50.5 µg/mL; for `CCn1c(SCC(=O)NC2CC2)nnc1-c1ccccn1`: more than 45.5 µg/mL; for `O=C1ON=C(c2ccccc2)/C1=C/c1cccnc1`: 35.8 µg/mL (≈ 143 µM).
